Source: PubChem BioAssay (NCI)
“And” between values parts separate entries of the source, which are not always exact repeats. Identical values can stand only once.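 Test compounds were applied to cells in 96-well plates for 48 hours at 5 doses. Here, GI50 denotes the concentration required for 50% inhibition of growth. TGI: concentration producing complete growth inhibition.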 *1 amine or outer side, *2 acyl side, *3 side chain or, on linkers, in order; H or OH if unused. Where a SMILES comes first, the peptide text is derived from it. Bridges are numbered along the chain shown (N, C = ends). Roman numbers before positions name the chains, in order. [ ]: non-standard residue; d: D form. Actinocin(9to1) = Cc1c2oc3c(C)ccc(C(=O)[*:1])c3nc-2c(C(=O)[*:2])c(N)c1=O; NMeT = CN[CH](C(=O)O)[CH](C)O; Sar = CNCC(=O)O

Key:
Test in all cases: NCI-60 cell line screen, 48 h
COLO 205 colon = test system: COLO 205 colon
EKVX NSCLC = test system: EKVX NSCLC
HOP-92 NSCLC = test system: HOP-92 NSCLC
HS 578T breast = test system: HS 578T breast
MALME-3M melanoma = test system: MALME-3M melanoma
MOLT-4 leukemia = test system: MOLT-4 leukemia
NCI-H460 lung = test system: NCI-H460 lung
OVCAR-5 ovarian = test system: OVCAR-5 ovarian
SF-268 CNS = test system: SF-268 CNS
SK-MEL-2 melanoma = test system: SK-MEL-2 melanoma

| SMILES | GI50 (COLO 205 colon) | TGI (COLO 205 colon) [µM] | GI50 (EKVX NSCLC) | TGI (EKVX NSCLC) | GI50 (HOP-92 NSCLC) [µM] | TGI (HOP-92 NSCLC) [µM] | GI50 (HS 578T breast) [µM] | TGI (HS 578T breast) [µM] | GI50 (MALME-3M melanoma) | TGI (MALME-3M melanoma) | GI50 (MOLT-4 leukemia) [µM] | TGI (MOLT-4 leukemia) | GI50 (NCI-H460 lung) [µM] | TGI (NCI-H460 lung) | GI50 (OVCAR-5 ovarian) | TGI (OVCAR-5 ovarian) [µM] | GI50 (SF-268 CNS) [µM] | TGI (SF-268 CNS) [µM] | GI50 (SK-MEL-2 melanoma) [µM] | TGI (SK-MEL-2 melanoma) |
| --- | --- | --- | --- | --- | --- | --- | --- | --- | --- | --- | --- | --- | --- | --- | --- | --- | --- | --- | --- | --- |
| Cc1ccc(Cc2cnc(NC(=O)/C=C/c3cccc(C)c3)s2)cc1 | 0.355 µM | > 100 | 0.403 µM | > 100 µM | 0.0793 | > 57 | 0.212 | 5.86 | 0.19 µM | 51.9 µM | 0.261 | > 100 µM | 0.064 | 11.8 µM | 0.492 µM | > 70.8 | 1.85 | > 100 | 1.68 | > 100 µM |
| C=C(C)[C@@H]1CC[C@]2(C(=O)O)CC[C@]3(C)[C@H](CC[C@@H]4[C@@]5(C)CCC(NC(=O)c6cccc(OC(C)=O)c6OC(C)=O)C(C)(C)[C@@H]5CC[C@]43C)[C@@H]12 (stereo partly drawn) | 0.345 µM | 1.9 | 0.918 µM | > 100 µM | 0.439 | 2.25 | 0.566 | 4.28 | 0.317 µM | 1.47 µM | 0.497 | 2.85 µM | 0.38 | 1.42 µM | 1.92 µM | > 27.3 | 0.78 | 11.9 | 0.981 | 4.02 µM |
| Cc1nc2sc(C(=O)Nc3cccc4ccccc34)c(N)c2cc1C(O)c1ccccc1 (stereo not drawn) | 0.349 µM | 2.28 | 0.375 µM | 37.5 µM | 2.11 | 18.8 | 0.0306 | 0.693 | 0.0558 µM | 21.2 µM | 0.0796 | > 65.7 µM | 0.0381 | 0.449 µM | 0.28 µM | > 100 | 0.174 | 11.2 | 0.29 | 16.9 µM |
| O=C(O)c1ccc(Oc2nccc(-c3c(-c4ccc(F)cc4)ncn3C3CCNCC3)n2)cc1 | > 25 µM | > 25 | > 25 µM | > 25 µM | – | – | > 25 | > 25 | > 25 µM | > 25 µM | > 25 | > 25 µM | > 25 | > 25 µM | > 25 µM | > 25 | > 25 | > 25 | > 25 | > 25 µM |
| C=C1C(=O)O[C@H]2[C@H]1CC/C(COC(=O)c1cc3ccccc3o1)=C\CC[C@@]1(C)O[C@@H]21 | 1.55 µM | 3.15 | 2.02 µM | 6.12 µM | 1.44 | 3.1 | 2.91 | 10.9 | 1.66 µM | 3.27 µM | 1.77 | 6.06 µM | 2 | 4.51 µM | 1.88 µM | 3.75 | 1.56 | 3.27 | 1.77 | 3.81 µM |
| C=C1C(C2(C)C(OC(C)=O)CC(=O)OC(C)(COC(C)=O)C2CC(=O)OC)C(OC=O)C(OC(=O)C(O)C(C)CC)C2(C)C(c3ccoc3)CC(=O)C12O (stereo not drawn) | – | > 100 | – | > 100 µM | – | > 100 | – | > 100 | – | – | – | > 100 µM | – | > 21.8 µM | – | > 100 | – | > 100 | – | > 100 µM |
| COc1ccc(/C(COc2ccc3c(=O)c(-c4ccccc4)coc3c2)=N\O)cc1 | 9.66 µM | > 36.3 | 4.94 µM | 38.7 µM | 8.83 | 47 | 3.79 | 44.6 | 0.72 µM | 5.91 µM | 1.08 | > 100 µM | 4 | 31.7 µM | – | > 96.5 | 6.36 | > 78.5 | 3.5 | 23.7 µM |
| CNC/C(Cl)=N/S(=O)(=O)c1ccc(C)cc1 | – | 38.2 | – | 40.4 µM | – | 51.1 | – | > 100 | – | 27.5 µM | – | – | – | 27.2 µM | – | 47.5 | – | > 100 | – | 34.4 µM |
| COc1cc2ncn(-c3cc(O[C@@H](C)c4ccccc4Cl)c(C(N)=O)s3)c2cc1OC | 0.444 µM | > 25 | 6.66 µM | > 25 µM | 4.67 | > 25 | 2.11 | 13.4 | 13.7 µM | > 25 µM | 0.926 | > 18.4 µM | 0.949 | > 25 µM | 1.29 µM | > 25 | 1.61 | > 25 | 1.58 | > 25 µM |
| O=C(O)CCCSc1ccccc1 | – | > 100 | – | > 100 µM | – | > 100 | – | > 100 | – | > 100 µM | – | > 100 µM | – | > 100 µM | – | > 100 | – | > 100 | – | > 100 µM |
| COc1cccc(/C=C/[N+](=O)[O-])c1 | 1.86 µM | 3.54 | 19 µM | 76.2 µM | 15.9 | 34.6 | 15.8 | 55.5 | 12.1 µM | 27.8 µM | 3.06 | 11.9 µM | 15.1 | 38.8 µM | 12.3 µM | 27.6 | 5.64 | 21.4 | 17.4 | 35.9 µM |
| Cc1cccc(C)c1NC(=O)C(=O)CC(=O)/C=C/c1ccccc1 | – | – | – | > 100 µM | – | > 100 | – | > 100 | – | > 100 µM | – | > 100 µM | – | > 100 µM | – | > 100 | – | > 100 | – | > 100 µM |
| Cc1c2oc3c(C)ccc(C(=O)NC4C(=O)NC(C(C)C)C(=O)N5CCCC5C(=O)N(C)CC(=O)N(C)C(C(C)O)C(=O)OC4C)c3nc-2c(C(=O)NC2C(=O)NC(C(C)C)C(=O)N3CCCC3C(=O)N(C)CC(=O)N(C)C(C(C)O)C(=O)OC2C)c(N)c1=O (stereo not drawn) (I: TVP[Sar][NMeT] / II: TVP[Sar][NMeT]; ester I:1-I:C, II:1-II:C; linker I:N-II:N via Actinocin(9to1); configuration not given here) | 2.22 µM and 0.801 µM | > 36.8 | 2.56 µM and > 1 µM | 25 µM and > 1 µM | – | > 71.4 | – | > 27.1 | 0.0949 µM and 0.729 µM | 6.05 µM and > 1 µM | – | 11.1 µM and > 1 µM | – | 4.95 µM and > 1 µM | 4.29 µM and > 1 µM | > 43.4 | – | > 63 | – | 3.97 µM and > 1 µM |
